One experiment concerns the target PIK3CA (UniProt P42336). Description: Inhibition of PIK3CA Kinase Activity.
Experiment [1] deals with PIK3CA, P42336 [Wild Type]. In words: Inhibition of PIK3CA (Wild Type) Kinase Activity.
PIK3CA, P42336 [Wild Type], sequence (P42336 whole entry, looked up): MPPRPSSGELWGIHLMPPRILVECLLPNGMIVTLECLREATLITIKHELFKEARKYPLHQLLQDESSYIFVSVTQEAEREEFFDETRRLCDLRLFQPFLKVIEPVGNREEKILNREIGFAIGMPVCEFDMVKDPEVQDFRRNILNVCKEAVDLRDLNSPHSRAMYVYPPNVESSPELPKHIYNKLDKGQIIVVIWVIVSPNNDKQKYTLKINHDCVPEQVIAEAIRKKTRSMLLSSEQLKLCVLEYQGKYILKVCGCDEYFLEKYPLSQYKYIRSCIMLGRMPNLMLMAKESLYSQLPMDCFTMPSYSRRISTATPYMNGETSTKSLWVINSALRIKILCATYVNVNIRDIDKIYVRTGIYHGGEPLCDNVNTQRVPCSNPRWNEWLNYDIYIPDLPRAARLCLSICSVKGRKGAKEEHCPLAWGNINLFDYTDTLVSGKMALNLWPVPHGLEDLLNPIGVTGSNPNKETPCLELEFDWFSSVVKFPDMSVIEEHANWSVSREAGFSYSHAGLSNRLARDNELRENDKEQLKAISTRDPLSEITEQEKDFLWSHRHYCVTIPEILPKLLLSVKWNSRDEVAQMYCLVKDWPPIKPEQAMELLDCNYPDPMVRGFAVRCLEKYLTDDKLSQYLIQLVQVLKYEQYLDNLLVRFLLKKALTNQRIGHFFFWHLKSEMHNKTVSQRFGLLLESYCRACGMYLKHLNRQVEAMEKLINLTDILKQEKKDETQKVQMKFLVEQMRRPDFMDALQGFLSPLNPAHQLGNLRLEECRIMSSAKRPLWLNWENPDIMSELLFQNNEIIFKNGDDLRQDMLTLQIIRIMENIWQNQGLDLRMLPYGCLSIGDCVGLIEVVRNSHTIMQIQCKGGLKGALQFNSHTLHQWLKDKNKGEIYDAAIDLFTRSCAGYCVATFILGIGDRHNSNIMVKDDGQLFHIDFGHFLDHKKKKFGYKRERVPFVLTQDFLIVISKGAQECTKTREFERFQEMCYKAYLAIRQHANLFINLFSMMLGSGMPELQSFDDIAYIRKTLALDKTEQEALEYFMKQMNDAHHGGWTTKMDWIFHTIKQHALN

PIK3CA, sequence (P42336 whole entry, looked up): as above

Usually IC50 stands for the concentration that gives 50% inhibition. Take `CCCCc1c(N2CCOCC2)oc2ccccc2c1=O`: the IC50 against PIK3CA came out at 48 µM; in experiment [1] it was 25 µM.
Consider `O=c1c(-c2ccccc2)c(N2CCOCC2)oc2ccccc12`, for which the IC50 (against PIK3CA; in experiment [1]) was > 200 µM each time.
Take `O=c1cc(N2CCOCC2)oc2ccccc12`: the IC50 was 15 µM against PIK3CA and 2.6 µM in experiment [1].
As to `CCc1c(N2CCOCC2)oc2ccccc2c1=O`, the results for the IC50 (on PIK3CA; in experiment [1]) were 4.4 µM and 28 µM, respectively.
For the compound `O=c1c(Cc2ccccc2)c(N2CCOCC2)oc2ccccc12`, the IC50 (against PIK3CA; in experiment [1]) was > 200 µM in each case.
`CCCc1c(N2CCOCC2)oc2ccccc2c1=O`: the IC50 stood at 68 µM on PIK3CA and 31 µM in experiment [1].
For the compound `CC(C)c1c(N2CCOCC2)oc2ccccc2c1=O`, the IC50 on PIK3CA was > 200 µM; in experiment [1], 51 µM.
With `Cc1c(N2CCOCC2)oc2ccccc2c1=O`, the IC50 against PIK3CA is 40 µM; in experiment [1], 33 µM.

The values are drawn from the Kinase Knowledgebase extract (Sharma et al. 2016).
